According to PMC11481279 (Europace, 2024):

Target: SARS-CoV-2 ORF 3a protein (Severe acute respiratory syndrome coronavirus 2, UniProt P0DTC3)
Assay: cell-based
Settings: read-out: % inhibition at 100 μM

SARS-CoV-2 ORF 3a protein, sequence (P0DTC3 whole entry, looked up): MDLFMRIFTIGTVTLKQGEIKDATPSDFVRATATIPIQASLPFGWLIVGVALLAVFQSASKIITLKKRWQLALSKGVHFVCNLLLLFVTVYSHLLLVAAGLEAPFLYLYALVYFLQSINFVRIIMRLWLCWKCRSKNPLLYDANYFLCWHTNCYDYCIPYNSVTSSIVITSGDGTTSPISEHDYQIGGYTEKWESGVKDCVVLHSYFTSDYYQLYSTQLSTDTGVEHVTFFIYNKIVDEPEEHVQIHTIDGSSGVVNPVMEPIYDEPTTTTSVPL

Structure (SMILES)	inhibition at 100 µM
CC(C)NC[C@@H](O)c1ccc(NS(C)(=O)=O)cc1 [D-Sotalol]	20.6 ± 4.5%
CN(CCOc1ccc(NS(C)(=O)=O)cc1)CCc1ccc(NS(C)(=O)=O)cc1 [Dofetilide]	65.1 ± 6.7%
CCCCc1oc2ccc(NS(C)(=O)=O)cc2c1C(=O)c1ccc(OCCCN(CCCC)CCCC)cc1 [Dronedarone]	45.4 ± 4.7%
CCCCCCCN(CC)CCCC(O)c1ccc(NS(C)(=O)=O)cc1 (stereo not shown) [Ibutilide]	36.4 ± 6.6%
